For one assay, the target named is NRAS Q61K (Homo sapiens, UniProt P01111+P62937, Q61K). As to the kind of experiment: Disruption of BRAF RBD interaction with Ras (FRET / MOA assay, with Cyclophilin A). The format is biochemical. To be noted: NRAS Q61K; read-out: NRAS Q61K FRET data IC50. The source says:
(§1) Disruption of B-Raf Ras-Binding Domain (BRAF^RBD) Interaction with K-Ras by Compounds of the Invention (Also Called a FRET Assay or an MOA Assay)
(§2) Note—The following protocol describes a procedure for monitoring disruption of K-Ras G12C (GMP-PNP) binding to BRAF^RBD by a compound of the invention. This protocol may also be executed substituting other Ras proteins or nucleotides.
(§3) The purpose of this biochemical assay was to measure the ability of test compounds to facilitate ternary complex formation between a nucleotide-loaded K-Ras isoform and Cyclophilin A; the resulting ternary complex disrupts binding to a BRAF^RBD construct, inhibiting K-Ras signaling through a RAF effector. Data is reported as IC50 values.
(§4) In assay buffer containing 25 mM HEPES pH 7.3, 0.002% Tween20, 0.1% BSA, 100 mM NaCl and 5 mM MgCl2, tagless Cyclophilin A, His6-K-Ras-GMPPNP, and GST-BRAF^RBD were combined in a 384-well assay plate at final concentrations of 25 μM, 12.5 nM and 50 nM, respectively. Compound was present in plate wells as a 10-point 3-fold dilution series starting at a final concentration of 30 μM. After incubation at 25° C. for 3 hours, a mixture of Anti-His Eu-W1024 and anti-GST allophycocyanin was then added to assay sample wells at final concentrations of 10 nM and 50 nM, respectively, and the reaction incubated for an additional 1.5 hours. […] Compounds that facilitate disruption of a K-Ras:RAF complex were identified as those eliciting a decrease in the TR-FRET ratio relative to DMSO control wells.
(§5) The purpose of this biochemical assay was to measure the ability of test compounds to facilitate ternary complex formation between a nucleotide-loaded K-Ras isoform and Cyclophilin A; the resulting ternary complex disrupts binding to a BRAF^RBDD construct, inhibiting K-Ras signaling through a RAF effector. Data is reported as IC50 values.

The test system of a further assay is NCI-H358 (K-Ras G12C). As to the kind of experiment: CellTiter-Glo cell viability assay, 5-day treatment. The format is cell-based. To be noted: Homo sapiens, NCI-H358, 120 h, 5-day treatment; read-out: H358 Cell Viability assay data (K-Ras G12C, IC50). A digest of the protocol: (§6)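 Five-day compound treatment of plated cells; luminescent read after ~30 min at RT. Percent-of-DMSO data fit to a four-parameter logistic model.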
In general terms: In ATP-based viability assays light output follows the ATP content of the culture.

A further assay concerns the target NRAS Q61R (Homo sapiens, UniProt P01111+P62937, Q61R). In words: Disruption of BRAF RBD interaction with Ras (FRET / MOA assay, with Cyclophilin A). The format is biochemical. To be noted: NRAS Q61R; read-out: NRAS Q61R FRET data IC50.
From the text: as §1, §2, §3, §4, §5

The target in another assay is KRAS G13C (Homo sapiens, UniProt P01116+P62937, G13C). Described as above. The format is biochemical. The note with it: read-out: KRAS G13C FRET data, IC50. A digest of the protocol:
(§7)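 Biochemical TR-FRET disruption assay: nucleotide-loaded K-Ras with Cyclophilin A and a BRAF RBD construct, compound titrated over 10 points from 30 μM (final).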

Another assay has as its target KRAS G13D (Homo sapiens, UniProt P01116+P62937, G13D). The description is as above. The format is biochemical. The note with it: KRAS G13D; read-out: KRAS G13D FRET data IC50. The gist of the method: as §7
Another assay concerns the target KRAS WT (Homo sapiens, UniProt P01116+P62937). The description is as above. The format is biochemical. The note with it: KRAS WT; read-out: KRAS WT FRET data IC50. A digest of the protocol: as §7
The target in the next assay is KRAS G12V (Homo sapiens, UniProt P01116+P62937, G12V). The assay is described as above. To be noted: KRAS G12V; read-out: KRAS G12V FRET data IC50. The format is biochemical. A digest of the protocol:
as §7

In a further assay the target is KRAS G12S (Homo sapiens, UniProt P01116+P62937, G12S). The description is as above. The format is biochemical. To be noted: read-out: KRAS G12S FRET data, IC50. The gist of the method:
as §7

The next assay deals with KRAS G12C (Homo sapiens, UniProt P01116+P62937, G12C). Described as above. The class given is biochemical. The note with it: read-out: KRAS G12C FRET data, IC50. A digest of the protocol: as §7
Sequence of KRAS G12C (P01116 1-169 isoform P01116-2 G12C): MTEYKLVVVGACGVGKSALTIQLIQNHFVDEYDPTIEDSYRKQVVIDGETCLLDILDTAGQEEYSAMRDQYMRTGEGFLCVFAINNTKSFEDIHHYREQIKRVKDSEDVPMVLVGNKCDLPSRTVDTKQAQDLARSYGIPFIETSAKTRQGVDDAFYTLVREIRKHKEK
Sequence of KRAS G12C (P62937 whole entry): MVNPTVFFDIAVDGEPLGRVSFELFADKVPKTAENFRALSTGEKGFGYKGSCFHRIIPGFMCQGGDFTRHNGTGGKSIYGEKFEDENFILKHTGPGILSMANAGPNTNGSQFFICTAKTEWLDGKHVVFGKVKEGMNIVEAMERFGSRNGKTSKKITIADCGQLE
The target of a further assay is NRAS G12C (Homo sapiens, UniProt P01111+P62937, G12C). The description is as above. The class given is biochemical. To be noted: NRAS G12C; read-out: NRAS G12C FRET data IC50.
Sequence of NRAS G12C (P01111 whole entry G12C): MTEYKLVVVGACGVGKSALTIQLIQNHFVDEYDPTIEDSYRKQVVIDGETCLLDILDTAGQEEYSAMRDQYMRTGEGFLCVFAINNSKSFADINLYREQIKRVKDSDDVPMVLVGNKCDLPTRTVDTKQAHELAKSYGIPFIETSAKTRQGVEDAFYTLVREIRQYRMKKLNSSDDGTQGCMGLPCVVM
Sequence of NRAS G12C (P62937 whole entry): as the sequence (P62937 whole entry) above
The target in the next assay is KRAS G12D (Homo sapiens, UniProt P01116+P62937, G12D). The description is as above. The format is biochemical. To be noted: read-out: KRAS G12D FRET data, IC50. A digest of the protocol: as §7
Sequence of KRAS G12D (P01116 1-169 isoform P01116-2 G12D limits assumed): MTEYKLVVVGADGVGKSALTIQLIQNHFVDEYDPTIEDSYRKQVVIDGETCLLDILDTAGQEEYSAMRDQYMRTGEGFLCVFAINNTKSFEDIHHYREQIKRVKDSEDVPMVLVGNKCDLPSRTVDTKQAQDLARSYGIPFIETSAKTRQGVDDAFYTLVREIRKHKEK
Sequence of KRAS G12D (P62937 whole entry): as the sequence (P62937 whole entry) above
Another assay relates to Capan-1 (K-Ras G12V). As to the kind of experiment: CellTiter-Glo cell viability assay, 5-day treatment. The class given is cell-based. The note with it: Homo sapiens, CAPAN-1, 120 h, 5-day treatment; read-out: Capan-1 Cell Viability assay data (K-Ras G12V, IC50). A digest of the protocol: as §6

Molecules are shown by their SMILES. Bounds are passed on as bounds.

Sequence of KRAS G12V (P01116 1-169 isoform P01116-2 G12V limits assumed): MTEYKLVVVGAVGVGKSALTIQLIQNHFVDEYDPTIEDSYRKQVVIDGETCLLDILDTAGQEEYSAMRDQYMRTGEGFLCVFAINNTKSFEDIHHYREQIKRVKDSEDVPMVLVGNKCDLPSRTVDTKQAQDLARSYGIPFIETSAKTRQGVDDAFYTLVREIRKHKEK
Sequence of KRAS G12V (P62937 whole entry): as the sequence (P62937 whole entry) above
Sequence of KRAS G13D (P01116 1-169 isoform P01116-2 G13D limits assumed): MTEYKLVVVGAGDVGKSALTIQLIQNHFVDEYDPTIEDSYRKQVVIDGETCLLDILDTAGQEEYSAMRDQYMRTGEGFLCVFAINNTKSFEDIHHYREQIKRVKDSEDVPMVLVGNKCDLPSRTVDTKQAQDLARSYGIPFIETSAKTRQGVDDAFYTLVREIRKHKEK
Sequence of KRAS G13D (P62937 whole entry): as the sequence (P62937 whole entry) above
Sequence of KRAS G13C (P01116 1-169 isoform P01116-2 G13C): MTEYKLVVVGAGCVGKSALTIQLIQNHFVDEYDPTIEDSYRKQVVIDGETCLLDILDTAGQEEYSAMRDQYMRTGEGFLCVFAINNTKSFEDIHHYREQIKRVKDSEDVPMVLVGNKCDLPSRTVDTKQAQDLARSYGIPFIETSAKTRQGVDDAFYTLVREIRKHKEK
Sequence of KRAS G13C (P62937 whole entry): as the sequence (P62937 whole entry) above
Sequence of KRAS G12S (P01116 1-169 isoform P01116-2 G12S limits assumed): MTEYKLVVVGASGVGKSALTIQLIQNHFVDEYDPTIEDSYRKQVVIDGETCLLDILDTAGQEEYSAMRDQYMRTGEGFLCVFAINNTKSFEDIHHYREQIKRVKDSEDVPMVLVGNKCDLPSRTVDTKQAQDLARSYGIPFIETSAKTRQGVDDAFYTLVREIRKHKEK
Sequence of KRAS G12S (P62937 whole entry): as the sequence (P62937 whole entry) above
Sequence of KRAS WT (P01116 1-169 isoform P01116-2 limits assumed): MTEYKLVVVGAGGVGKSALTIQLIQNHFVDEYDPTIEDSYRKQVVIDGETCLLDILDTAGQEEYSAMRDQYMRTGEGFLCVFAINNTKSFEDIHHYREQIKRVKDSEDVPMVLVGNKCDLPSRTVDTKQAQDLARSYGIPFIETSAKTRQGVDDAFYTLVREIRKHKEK
Sequence of KRAS WT (P62937 whole entry): as the sequence (P62937 whole entry) above
Sequence of NRAS Q61R (P01111 whole entry Q61R): as the sequence (P01111 whole entry G12C) above, with C12G, Q61R counted along it
Sequence of NRAS Q61R (P62937 whole entry): as the sequence (P62937 whole entry) above
Sequence of NRAS Q61K (P01111 whole entry Q61K, the tested form may be a part): as the sequence (P01111 whole entry G12C) above, with C12G, Q61K counted along it
Sequence of NRAS Q61K (P62937 whole entry, the tested form may be a part): as the sequence (P62937 whole entry) above

As a reminder, the IC50 is the concentration needed to halve the response being measured. In the case of `CCn1c(-c2cccnc2[C@H](C)OC)c2c3cc(ccc31)-c1csc(n1)C[C@H](NC(=O)[C@H](C(C)C)N(C)C(=O)N1CC(C(C)(C)O)C1)C(=O)N1CCC[C@H](N1)C(=O)OCC(C)(C)C2` (atropisomer, axis not shown) [Example A289], the IC50 at NRAS Q61K was 10 to 100 nM; with NCI-H358 (K-Ras G12C) it was under 10 nM.
As for `CCC[C@H]1CCN1C(=O)N[C@H]1Cc2nc(cs2)-c2ccc3c(c2)c(c(-c2cccnc2[C@H](C)OC)n3CC)CC(C)(C)COC(=O)[C@@H]2CCCN(N2)C1=O` [Example A264], on NRAS Q61R, the IC50 fell in the range of 100 to 1000 nM.
Consider `CCn1c(-c2cccnc2[C@H](C)OC)c2c3cc(ccc31)-c1csc(n1)C[C@H](NC(=O)[C@H](C(C)C)N(C)C(=O)N1CCO[C@H](C)C1)C(=O)N1CCC[C@H](N1)C(=O)OCC(C)(C)C2` [Example A310], for which, at NRAS Q61R, the IC50 fell in the range of 10 to 100 nM.
With `CCn1c(-c2cccnc2[C@H](C)OC)c2c3cc(ccc31)-c1csc(n1)C[C@H](NC(=O)[C@H](C(C)C)N(C)C(=O)N(C)C(C)C)C(=O)N1CCC[C@H](N1)C(=O)OCC(C)(C)C2` [Example A350], the IC50 was 100 to 1000 nM at KRAS G13C; 100 to 1000 nM on KRAS G13D; 100 to 1000 nM at KRAS WT; 100 to 1000 nM on KRAS G12V; 100 to 1000 nM at KRAS G12S; 10 to 100 nM at KRAS G12C. Also, the IC50 on NRAS G12C was 10 to 100 nM; at KRAS G12D it was 100 to 1000 nM; with NCI-H358 (K-Ras G12C), 10 to 100 nM; in the assay with Capan-1 (K-Ras G12V) it was 100 to 1000 nM.
`CCN(C(=O)N(C)[C@H](C(=O)N[C@H]1Cc2nc(cs2)-c2ccc3c(c2)c(c(-c2cccnc2[C@H](C)OC)n3CC)CC(C)(C)COC(=O)[C@@H]2CCCN(N2)C1=O)C(C)C)C1CC1` [Example A352]: the IC50 on KRAS G13C, at KRAS G13D, on KRAS WT, at KRAS G12V, at KRAS G12S and on KRAS G12C was 100 to 1000 nM throughout. Further, the IC50 at NRAS G12C lay within 100 to 1000 nM; on KRAS G12D, 1000 to 10000 nM; with NCI-H358 (K-Ras G12C) it was 10 to 100 nM; in the assay with Capan-1 (K-Ras G12V) it was 100 to 1000 nM.
Consider `CCn1c(-c2cccnc2[C@H](C)OC)c2c3cc(ccc31)-c1csc(n1)C[C@H](NC(=O)[C@H](C(C)C)N(C)C(=O)N(C)C1CC1)C(=O)N1CCC[C@H](N1)C(=O)OCC(C)(C)C2` [Example A353], for which the IC50 on KRAS G13C was 100 to 1000 nM; on KRAS G13D, 100 to 1000 nM; at KRAS WT, 100 to 1000 nM; on KRAS G12V it was 100 to 1000 nM; on KRAS G12S, 100 to 1000 nM; at KRAS G12C, 10 to 100 nM. Moreover, the IC50 at NRAS G12C was 10 to 100 nM; on KRAS G12D, 100 to 1000 nM; with NCI-H358 (K-Ras G12C) it was 10 to 100 nM; with Capan-1 (K-Ras G12V), 10 to 100 nM.
In the case of `CCn1c(-c2cccnc2[C@H](C)OC)c2c3cc(ccc31)-c1cc(O)cc(c1)C[C@H](NC(=O)[C@H](C(C)C)N(C)C(=O)[C@H]1CCN(C(=O)[C@H]3CCCN3)C1)C(=O)N1CCC[C@H](N1)C(=O)OCC(C)(C)C2` [Example A378], the IC50 at KRAS G13C, on KRAS G13D, at KRAS WT, on KRAS G12V, on KRAS G12S and at KRAS G12C was 10 to 100 nM throughout. The IC50 lay within 10 to 100 nM at NRAS G12C, 10 to 100 nM at KRAS G12D, 100 to 1000 nM in the assay with NCI-H358 (K-Ras G12C) and 1000 to 10000 nM in the assay with Capan-1 (K-Ras G12V).
`CCn1c(-c2cccnc2[C@H](C)OC)c2c3cc(ccc31)-c1cc(O)cc(c1)C[C@H](NC(=O)[C@H](C(C)C)N(C)C(=O)[C@H]1CCN(C(=O)[C@@H]3CCCN3C)C1)C(=O)N1CCC[C@H](N1)C(=O)OCC(C)(C)C2` [Example A385]: the IC50 on KRAS G13C, at KRAS G13D, on KRAS WT, at KRAS G12V, at KRAS G12S and at KRAS G12C was 10 to 100 nM throughout. Besides, the IC50 on NRAS G12C lay in the range of 10 to 100 nM; at KRAS G12D, 10 to 100 nM; in the assay with NCI-H358 (K-Ras G12C) it was 100 to 1000 nM; with Capan-1 (K-Ras G12V), 100 to 1000 nM.
As for `CCn1c(-c2cccnc2[C@H](C)OC)c2c3cc(ccc31)-c1cc(O)cc(c1)C[C@H](NC(=O)[C@H](C(C)C)N(C)C(=O)[C@H]1CC[C@@H](CN(C)C)O1)C(=O)N1CCC[C@H](N1)C(=O)OCC(C)(C)C2` [Example A397], the IC50 at KRAS G13C was 10 to 100 nM; at KRAS G13D, 10 to 100 nM; on KRAS WT it was 10 to 100 nM; on KRAS G12V, 100 to 1000 nM; at KRAS G12S, 10 to 100 nM; at KRAS G12C, 10 to 100 nM. Also, the IC50 was 10 to 100 nM at NRAS G12C, 10 to 100 nM at KRAS G12D, 100 to 1000 nM in the assay on NCI-H358 (K-Ras G12C) and 100 to 1000 nM in the assay with Capan-1 (K-Ras G12V).
As to `CCn1c(-c2cccnc2[C@H](C)OC)c2c3cc(ccc31)-c1cc(O)cc(c1)C[C@H](NC(=O)[C@H](C(C)C)N(C)C(=O)[C@@H]1OC[C@@H]3CCC[C@@H]31)C(=O)N1CCC[C@H](N1)C(=O)OCC(C)(C)C2` [Example A407], the IC50 on KRAS G13C, on KRAS G13D, at KRAS WT, at KRAS G12V, at KRAS G12S and at KRAS G12C was 10 to 100 nM each time. The IC50 at NRAS G12C was in the range of 10 to 100 nM; on KRAS G12D it was 100 to 1000 nM; in the assay on NCI-H358 (K-Ras G12C), 100 to 1000 nM; with Capan-1 (K-Ras G12V), 100 to 1000 nM.
For the compound `CCn1c(-c2cccnc2[C@H](C)OC)c2c3cc(ccc31)-c1csc(n1)C[C@H](NC(=O)[C@H](C(C)C)N(C)C(=O)N1CC(C#N)(N(C)C)C1)C(=O)N1CCC[C@H](N1)C(=O)OCC(C)(C)C2` [Example A452], the IC50 at KRAS G13C fell in the range of 100 to 1000 nM; at KRAS G13D, 100 to 1000 nM; at KRAS WT, 100 to 1000 nM; on KRAS G12V, 100 to 1000 nM; on KRAS G12S, 100 to 1000 nM; at KRAS G12C, 10 to 100 nM. Further, the IC50 was 10 to 100 nM at NRAS G12C, 1000 to 10000 nM at KRAS G12D, 10 to 100 nM with NCI-H358 (K-Ras G12C) and 10 to 100 nM in the assay on Capan-1 (K-Ras G12V).
